Results as given in ChEMBL document CHEMBL5380807, “Imidazo[1,2-a]Pyridine Derivatives as Novel Dual-Target Inhibitors of ABCB1 and ABCG2 for Reversing Multidrug Resistance” (J Med Chem, 2023).
Calls of active or inactive are those of the source. The calls are words filed in the database; no cut-off is given here.

Assays:
[1] = biological target: ATP-dependent translocase ABCB1 (Homo sapiens, UniProt P08183); test: Inhibition of ABCB1 (unknown origin) ATPase activity assessed as decrease in luminescence by firefly luciferase reporter assay
[2] = biological target: T1, Broad substrate specificity ATP-binding cassette transporter ABCG2 (Homo sapiens, UniProt Q9UNQ0); test: Inhibition of ABCG2 (unknown origin) ATPase activity assessed as decrease in luminescence by firefly luciferase reporter assay
T1 sequence (Q9UNQ0 whole entry): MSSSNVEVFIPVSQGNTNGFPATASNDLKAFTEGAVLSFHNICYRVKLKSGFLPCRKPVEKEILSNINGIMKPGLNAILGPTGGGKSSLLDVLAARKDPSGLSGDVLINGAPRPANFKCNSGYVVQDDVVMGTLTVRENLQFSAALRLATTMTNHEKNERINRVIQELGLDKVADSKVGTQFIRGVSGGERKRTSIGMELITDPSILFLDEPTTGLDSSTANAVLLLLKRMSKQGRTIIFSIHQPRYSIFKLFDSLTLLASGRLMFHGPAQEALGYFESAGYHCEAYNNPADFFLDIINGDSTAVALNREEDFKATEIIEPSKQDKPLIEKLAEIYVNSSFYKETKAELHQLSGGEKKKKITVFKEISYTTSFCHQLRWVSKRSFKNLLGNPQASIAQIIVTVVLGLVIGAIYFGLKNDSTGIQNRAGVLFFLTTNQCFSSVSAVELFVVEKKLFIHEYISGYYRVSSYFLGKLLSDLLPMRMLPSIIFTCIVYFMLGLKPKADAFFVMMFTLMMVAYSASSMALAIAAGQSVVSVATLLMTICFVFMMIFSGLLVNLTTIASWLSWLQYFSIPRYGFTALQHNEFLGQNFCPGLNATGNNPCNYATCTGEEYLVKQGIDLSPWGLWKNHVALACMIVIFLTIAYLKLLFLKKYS

[3] = Cytotoxicity against human HEK293 cells expressing ABCG2 assessed as reduction in cell viability incubated for 72 hrs by SRB assay; type: toxicity, cell-based
[4] = Cytotoxicity against human HEK293 cells assessed as reduction in cell viability incubated for 72 hrs by SRB assay; type: toxicity, cell-based
HEK293 [5] = test: Reversal of ABCG2 mediated mitoxantrone resistance in human HEK293 overexpressing ABCG2 assessed as decrease in survival rate at 1.25 to 5 uM preincubated for 1 hrs followed by mitoxantrone addition and measured after 72 hrs by SRB assay; type: functional, cell-based; conditions: dose 1.25-5 µM, time 73.0 hrs
[6] = Cytotoxicity against human K562 cells assessed as decrease in cell survival rate incubated for 72 hrs by MTS assay; type: toxicity, cell-based
K562 [7] = test: Reversal of ABCB1 mediated adriamycin resistance in human K562 assessed as decrease in survival rate at 1.25 to 5 uM preincubated for 1 hrs followed by adriamycin addition and measured after 72 hrs by MTS assay; type: functional, cell-based; conditions: dose 1.25-5 µM, time 73.0 hrs
K562/A02 [8] = test: Reversal of ABCB1 mediated adriamycin resistance in human K562/A02 overexpressing ABCB1 assessed as decrease in survival rate at 5 uM preincubated for 1 hrs followed by adriamycin addition and measured after 72 hrs by MTS assay; type: functional
[9] = Cytotoxicity against human K562/A02 cells overexpressing ABCB1 assessed as decrease in cell survival rate incubated for 72 hrs by MTS assay; type: toxicity, cell-based
K562/A02 [10] = test: Reversal of ABCB1 mediated adriamycin resistance in human K562/A02 overexpressing ABCB1 assessed as decrease in survival rate at 1.25 to 5 uM preincubated for 1 hrs followed by adriamycin addition and measured after 72 hrs by MTS assay; type: functional, cell-based; conditions: dose 1.25-5 µM, time 73.0 hrs
HEK293 [11] = test: Reversal of ABCG2 mediated mitoxantrone resistance in human HEK293 assessed as decrease in survival rate at 1.25 to 5 uM preincubated for 1 hrs followed by mitoxantrone addition and measured after 72 hrs by SRB assay; type: functional, cell-based; conditions: dose 1.25-5 µM, time 73.0 hrs
K562 [12] = test: Reversal of ABCB1 mediated adriamycin resistance in human K562 cells assessed as reduction in survival rate at 5 uM preincubated for 1 hrs followed by adriamycin addition and measured after 72 hrs by MTS assay; type: functional, cell-based; conditions: time 73.0 hrs
K562 [13] = test: Antitumor activity against human K562 cells xenografted in BALB/c mouse assessed as tumor growth inhibition at 20 mg/kg, ip QD for 14 days in presence of adriamycin; type: functional, organism-based; conditions: time 14.0 day
K562/A02 [14] = test: Reversal of ABCB1 mediated multidrug resistance in human K562/A02 cells overexpressing ABCB1 assessed as decrease in survival rate at 5 uM preincubated for 1 hrs followed by vincristine addition and measured after 72 hrs by MTS assay; type: functional; conditions: time 73 hrs
K562/A02 [15] = test: Reversal of ABCB1 mediated adriamycin resistance in human K562/A02 cells overexpressing ABCB1 assessed as reduction in survival rate at 5 uM preincubated for 1 hrs followed by adriamycin addition and measured after 72 hrs by MTS assay; type: functional; conditions: time 73 hrs
K562 [16] = test: Reversal of ABCB1 mediated adriamycin resistance in human K562 cells assessed as reduction in survival rate at 1 uM preincubated for 1 hrs followed by adriamycin addition and measured after 72 hrs by MTS assay; type: functional, cell-based; conditions: time 73.0 hrs
K562/A02 [17] = test: Reversal of ABCB1 mediated adriamycin resistance in human K562/A02 cells overexpressing ABCB1 assessed as reduction in survival rate at 1 uM preincubated for 1 hrs followed by adriamycin addition and measured after 72 hrs by MTS assay; type: functional; conditions: time 73 hrs
K562/A02 [18] = test: (§1) Antitumor activity against human K562/A02 cells overexpressing ABCB1 xenografted in BALB/c mouse assessed as tumor growth inhibition at 1 mg/kg, ip BW for 14 days; type: functional, organism-based; conditions: time 14.0 day
[19] = Toxicity in BALB/c mouse xenografted with human K562/A02 cells overexpressing ABCB1 assessed as body weight loss at 1 mg/kg, ip BW for 14 days in presence of N-(4-(3-((4-Phenyipiperazin-1-yl)methyl)imidazo[l,2-a]pyridin-2-yl)phenyl)-2-(4-(4-(trifluoromethoxy)phenyl)piperazin-1-yl)acetamide; type: organism-based; conditions: in vivo, 336 h, time 14 day
K562 [20] = test: Antitumor activity against human K562 cells xenografted in BALB/c mouse assessed as tumor growth inhibition at 1 mg/kg, ip BW for 14 days in presence of N-(4-(3-((4-Phenyipiperazin-1-yl)methyl)imidazo[l,2-a]pyridin-2-yl)phenyl)-2-(4-(4-(trifluoromethoxy)phenyl)piperazin-1-yl)acetamide; type: functional, organism-based; conditions: time 14.0 day
[21] = Toxicity in BALB/c mouse xenografted with human K562 cells assessed as body weight loss at 1 mg/kg, ip BW for 14 days in presence of N-(4-(3-((4-Phenyipiperazin-1-yl)methyl)imidazo[l,2-a]pyridin-2-yl)phenyl)-2-(4-(4-(trifluoromethoxy)phenyl)piperazin-1-yl)acetamide; type: organism-based; conditions: in vivo, 336 h, time 14 day
K562 [22] = test: Antitumor activity against human K562 cells xenografted in BALB/c mouse assessed as tumor growth inhibition at 1 mg/kg, ip BW for 14 days in presence of verapamil; type: functional, organism-based; conditions: time 14.0 day
[23] = Toxicity in BALB/c mouse xenografted with human K562 cells assessed as body weight loss at 1 mg/kg, ip BW for 14 days; type: organism-based; conditions: in vivo, 336 h, time 14 day
K562/A02 [24] = test: as §1, with “days in presence of N-(4-(3-((4-Phenyipiperazin-1-yl)methyl)imidazo[l,2-a]pyridin-2-yl)phenyl)-2-(4-(4-(trifluoromethoxy)phenyl)piperazin-1-yl)acetamide” for “days”; type: functional, organism-based; conditions: time 14.0 day
[25] = Toxicity in BALB/c mouse xenografted with human K562 cells assessed as body weight loss at 1 mg/kg, ip BW for 14 days in presence of verapamil; type: organism-based; conditions: in vivo, 336 h, time 14 day
[26] = Toxicity in BALB/c mouse xenografted with human K562/A02 cells overexpressing ABCB1 assessed as body weight loss at 1 mg/kg, ip BW for 14 days; type: organism-based; conditions: in vivo, 336 h, time 14 day
K562 [27] = test: Antitumor activity against human K562 cells xenografted in BALB/c mouse assessed as tumor growth inhibition at 1 mg/kg, ip BW for 14 days; type: functional, organism-based; conditions: time 14.0 day
[28] = Toxicity in BALB/c mouse xenografted with human K562/A02 cells overexpressing ABCB1 assessed as body weight loss at 1 mg/kg, ip BW for 14 days in presence of verapamil; type: organism-based; conditions: in vivo, 336 h, time 14 day
K562/A02 [29] = test: Cytotoxicity against human K562/A02 cells overexpressing ABCB1 assessed as decrease in cell survival rate at 5 uM incubated for 72 hrs by MTS assay; type: toxicity, cell-based; conditions: k562/a02, 72 h
K562 [30] = test: Cytotoxicity against human K562 cells assessed as decrease in cell survival rate at 5 uM incubated for 72 hrs by MTS assay; type: toxicity, cell-based; conditions: k562, 72 h

Chain of ATP-dependent translocase ABCB1 (P08183 whole entry): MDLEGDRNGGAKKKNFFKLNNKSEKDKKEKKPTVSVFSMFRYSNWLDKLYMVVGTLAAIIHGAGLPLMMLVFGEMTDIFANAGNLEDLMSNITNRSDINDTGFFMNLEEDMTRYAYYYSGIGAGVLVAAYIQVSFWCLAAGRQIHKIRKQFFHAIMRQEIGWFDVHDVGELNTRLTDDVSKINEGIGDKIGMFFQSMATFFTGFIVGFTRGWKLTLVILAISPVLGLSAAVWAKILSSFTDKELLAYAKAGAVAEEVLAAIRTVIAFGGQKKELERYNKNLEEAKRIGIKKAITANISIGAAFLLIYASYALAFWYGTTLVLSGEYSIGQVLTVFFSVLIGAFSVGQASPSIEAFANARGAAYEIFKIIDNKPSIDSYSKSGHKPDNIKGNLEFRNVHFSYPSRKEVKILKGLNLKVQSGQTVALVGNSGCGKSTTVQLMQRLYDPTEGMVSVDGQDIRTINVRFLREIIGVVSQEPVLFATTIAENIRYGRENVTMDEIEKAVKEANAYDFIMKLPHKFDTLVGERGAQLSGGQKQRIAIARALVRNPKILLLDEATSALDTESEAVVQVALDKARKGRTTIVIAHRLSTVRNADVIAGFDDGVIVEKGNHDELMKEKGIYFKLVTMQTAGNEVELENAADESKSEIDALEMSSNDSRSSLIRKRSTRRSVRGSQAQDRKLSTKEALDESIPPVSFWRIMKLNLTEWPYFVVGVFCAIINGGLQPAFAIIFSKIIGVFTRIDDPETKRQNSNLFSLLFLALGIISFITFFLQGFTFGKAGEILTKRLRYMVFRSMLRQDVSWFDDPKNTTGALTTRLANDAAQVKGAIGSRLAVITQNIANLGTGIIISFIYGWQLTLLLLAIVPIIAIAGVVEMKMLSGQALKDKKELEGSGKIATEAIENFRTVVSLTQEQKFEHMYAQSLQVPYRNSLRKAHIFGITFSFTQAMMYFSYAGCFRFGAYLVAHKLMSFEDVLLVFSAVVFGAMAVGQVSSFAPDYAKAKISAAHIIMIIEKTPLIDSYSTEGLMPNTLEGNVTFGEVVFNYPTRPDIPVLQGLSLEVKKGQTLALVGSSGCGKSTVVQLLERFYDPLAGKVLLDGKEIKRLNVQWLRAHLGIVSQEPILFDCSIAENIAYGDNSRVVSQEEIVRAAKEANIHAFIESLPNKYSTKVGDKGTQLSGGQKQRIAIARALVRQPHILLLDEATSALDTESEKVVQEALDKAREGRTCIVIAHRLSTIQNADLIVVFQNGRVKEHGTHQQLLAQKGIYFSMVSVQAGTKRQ

Row | Compound | inhibition (INH) [1] | IC50 at 72 h [3] | IC50 at 72 h [4] | Activity (HEK293 [5]) | IC50 at 72 h [6] | Activity (K562 [7]) | Activity (K562/A02 [8]) | IC50 at 72 h [9] | Activity (K562/A02 [10]) | Activity (HEK293 [11]) | other results
1 | CC[C@@]1(O)C(=O)OCc2c1cc1n(c2=O)Cc2cc3c(CN(C)C)c(O)ccc3nc2-1 [TOPOTECAN] | Not Active |  |  |  |  |  |  |  |  |  | inhibition (INH) [2]: Not Active
2 | O=C1c2c(O)ccc(O)c2C(=O)c2c(NCCNCCO)ccc(NCCNCCO)c21 [MITOXANTRONE] |  | 1.72 µM | 0.04 µM |  |  |  |  |  |  |  | 
3 | COc1ccc(/C=C/C(=O)Nc2ccc(-c3nc4ccccn4c3CN3CCN(c4ccccc4)CC3)cc2)cc1 |  | 12.4 µM | 21 µM | Active | > 100 µM | inactive | <30% | > 100 µM | Active | inactive | 
4 | COc1ccc(CCN(C)CCCC(C#N)(c2ccc(OC)c(OC)c2)C(C)C)cc1OC (centres undefined) | Not Active |  |  |  |  |  |  |  |  |  | Activity (K562 [12]): Active; Activity (K562 [13]): inactive; Activity (K562/A02 [14]): 56%; Activity (K562/A02 [15]): 51%; Activity (K562 [16]): Active; Activity (K562/A02 [17]): 70%
5 | C=CCN(CC=C)CC(=O)Nc1ccc(-c2nc3ccccn3c2CN2CCN(c3ccccc3)CC2)cc1 |  | 18.5 µM | 11.8 µM | Active | > 100 µM | inactive | <30% | > 100 µM | Active | inactive | 
6 | SODIUM VANADATE | Active |  |  |  |  |  |  |  |  |  | inhibition (INH) [2]: Active
7 | C=CCN(CC=C)CC(=O)Nc1ccc(-c2nc3ccccn3c2CN2CCc3cc(OC)c(OC)cc3C2)cc1 |  | 11.5 µM | 37.6 µM | Active | 45.3 µM | inactive | <30% | 65.2 µM | Active | inactive | 
8 | CC(=O)N1CCN(c2ccc(OCC3COC(Cn4ccnc4)(c4ccc(Cl)cc4Cl)O3)cc2)CC1 (centres undefined) |  |  |  | Active |  |  |  |  |  | inactive | 
9 | COc1cccc2c1C(=O)c1c(O)c3c(c(O)c1C2=O)C[C@@](O)(C(=O)CO)C[C@@H]3O[C@H]1C[C@H](N)[C@H](O)[C@H](C)O1.Cl [DOXORUBICIN HYDROCHLORIDE] |  |  |  |  |  |  |  | 58.6 µM |  |  | Activity (K562/A02 [18]): inactive; Activity [19]: Non-Toxic; Activity (K562 [20]): inactive; Activity [21]: Non-Toxic; Activity (K562 [22]): inactive; Activity [23]: Toxic; Activity (K562/A02 [24]): Active; Activity [25]: Non-Toxic; Activity [26]: Non-Toxic; Activity (K562 [27]): Active; Activity [28]: Non-Toxic
10 | COc1cc2c(cc1OC)CN(CC(=O)Nc1ccc(-c3nc4ccccn4c3CN3CCc4cc(OC)c(OC)cc4C3)cc1)CC2 |  |  |  |  | > 100 µM | inactive |  | > 100 µM | Active |  | Activity (K562 [12]): inactive; Activity (K562/A02 [29]): Non-Toxic; Activity (K562 [30]): Non-Toxic; Activity (K562/A02 [15]): 39%; Activity (K562 [16]): inactive; Activity (K562/A02 [17]): 61%
